According to paper PMC9888311, “Neonatal NET-Inhibitory Factor improves survival in the cecal ligation and puncture model of polymicrobial sepsis by inhibiting neutrophil extracellular traps” (Frontiers in Immunology, 2023):
Where no end group is shown, it is not given here.

Columns and labels:
[1] = test system: aerobic bacteria in peritoneal fluid; assay: Peritoneal fluid aerobic bacterial colony forming units; assay type: in vivo, mouse (outbred Swiss Webster); details: 24 hours after CLP; nNIF 1 mg/kg or meropenem 25 mg/kg at 4 and 10 hours; serial dilution, LB-agar, 37°C 24 hours; N=5-8
Method: (§1) Peritoneal fluid cytokines were analyzed using a mouse Cytokine/Chemokine Panel I Multiplex Array (Millipore Sigma catalog# HCYTMAG60-PMX41) according to manufacturer’s instructions on a Luminex 200 instrument. Bacterial counts in whole blood and peritoneal lavage were determined 24 hours after CLP. Briefly, peritoneal fluid and blood samples were collected, serially diluted, plated on LB-agar dishes, and incubated at 37°C for 24 hours. The number of bacterial colonies was counted and expressed as CFU/mL.

[2] = test system: aerobic bacteria in whole blood; assay: Whole blood aerobic bacterial colony forming units; assay type: in vivo, mouse (outbred Swiss Webster); details: for peripheral blood bacterial CFUs at 24 hours: 24 hours after CLP, nNIF 1 mg/kg or meropenem 25 mg/kg at 4 and 10 hours, serial dilution, LB-agar, 37°C 24 hours, N=5-8
Method: as §1, with “Bacterial counts in whole blood and peritoneal lavage were determined 24 hours after CLP.” left out

[3] = test system: neutrophil extracellular traps (NETs), plasma; assay: Plasma NET formation (MPO-DNA complex ELISA); assay type: in vivo, mouse (outbred Swiss Webster); details: 24 hours after CLP; for plasma MPO-DNA complexes compared to other CLP treatment groups: nNIF 1 mg/kg IV or meropenem 25 mg/kg IP at 4 and 10 hours after CLP, N=3-5 per group, two experiments
Method: An in-house ELISA was used to quantify MPO-DNA complexes in plasma and peritoneal fluid from sham and CLP mice 24 hours after the surgical procedure ([24], [27]). Briefly, after overnight coating with anti-MPO capture antibody in calcium carbonate coating buffer (2 µg/ml; 0400-0002, Bio-Rad) at 4°C, a 96-well plate was blocked with 2.5% bovine serum albumin in PBS for 2 hours at room temperature. The plate was subsequently washed, before incubating for 90 minutes at room temperature with 10% peritoneal fluid in blocking buffer. The plate was washed five times, and then incubated for 90 minutes at room temperature with anti-DNA detection antibody (1:20; Cell Death detection ELISA, 11544675001, Sigma). After five washes, the plate was developed with TMB substrate solution (Sigma).

[4] = single dose 10 mg/kg, retro-orbital venous injection; LC/MS/MS; N=2-3 mice/time point
Method: PK plasma sample generation – Mature Swiss-Webster mice were inject ed with nNIF (10 mg/kg,
0.003% DMSO in PBS) via retro-orbital venous injection. Blood samples were obtain ed via
cheek bleed and cardiac puncture at 5, 15, 30, and 45 minutes, and at 1, 4, 8, 12, 24, and 48 hours
after nNIF injection. Only three blood samples were drawn from each indiv idual mouse, and
multiple mice were used to generate 2 -3 plasma samples per timepoint for PK analysis. Blood
samples were collected i n heparin coated capillary tubes, centrifuged at 1000 rpm for 10 minutes,
and snap-frozen in liquid nitrogen. Plasma samples were kept frozen at -80°C until analysis.
Mouse plasma PK quantitative bioanalysis – Flash -frozen mouse samples were thawed on ice
and spiked with 100 nM nNIF-H; precipitated with five volumes of 90% acetonitrile, 1% acetic
acid, and 0.1% formic acid in water; and filtered through a Phree Phosphol ipid Removal
Extraction Plate (Pheno menex). Standards with known concent rations of nNIF (100 pM to 25
μM) and nNIF-H (100 n M) spiked into mouse plasma were p repared using the same methods.
Supernatants were an alyzed by LC/MS/MS on an ExionLC UHPLC system coupled to a QTRAP […]
positive-ion mode. Mass transitions (m/z) used for quantitation were 846.9/ 976.1 and
determined from the nNIF/nNIF-H peak area ratio in extracted-ion chromat ograms compared […]

IL-10 = assay: Peritoneal fluid cytokine multiplex array, IL-10; assay type: in vivo, mouse (outbred Swiss Webster); details: 24 h after CLP; nNIF 1 mg/kg at 4 and 10 hours; N=5-9
Method: as §1

whole blood leukocytes = assay: Whole blood WBC and neutrophil counts (flow cytometry); assay type: in vivo, mouse (outbred Swiss Webster); details: 24 hours after CLP; nNIF 1 mg/kg IV at 4 and 10 hours after CLP; N=3-5
Method: (§2) Twenty-four hours after CLP or sham surgery, total white blood cell and differential neutrophil counts were determined both in whole blood samples collected from orbital vein using heparinized capillaries tubes and peritoneal fluid by washing with 3 mL of PBS, respectively. Then, samples were incubated with CD45 APC-Cy7 (Biolegend), CD11b PE-Cy7 (EBioscience), Ly6G BV510 (Biolegend), and CD16/CD32 (Fc-block, EBioscience) for 30 minutes at 37 °C. Thirty minutes later, cells were washed, fixed, and ran on a Beckman Coulter Cytoflex located in the University of Utah Flow Cytometry Core.

neutrophils = neutrophils exposed to nNIF; cited from earlier work
From the text: When considering the low DNA staining on confocal imaging of peritoneal leukocytes, it may be that the NET inhibition contributes to decreased endothelial dysfunction ([48]) and prevents immunothrombosis ([22]) which then leads to decreased inflammation. Alternatively, or in combination, the lack of NETs may lead to decreased opportunities to capture bacteria and thereby limit the chance that circulating PMNs will recognize and become acti ...

[5] = test system: peritoneal fluid leukocytes; assay: Peritoneal fluid WBC and neutrophil counts (flow cytometry); assay type: in vivo, mouse (outbred Swiss Webster); details: 24 hours after CLP; nNIF 1 mg/kg IV at 4 and 10 hours after CLP; N=5-9
Method: as §2

TNF-α = assay: Peritoneal fluid cytokine multiplex array, TNF-α; assay type: in vivo, mouse (outbred Swiss Webster); details: 24 h after CLP; nNIF 1 mg/kg at 4 and 10 hours; compared to all other treatment groups; N=5-9
Method: as §1

IL-6 = assay: Peritoneal fluid cytokine multiplex array, IL-6; assay type: in vivo, mouse (outbred Swiss Webster); details: 24 h after CLP; nNIF 1 mg/kg at 4 and 10 hours; N=5-9
Method: as §1

[6] = test system: CLP model of polymicrobial sepsis; assay: Blinded clinical illness severity score after CLP; assay type: in vivo, mouse (outbred Swiss Webster); details: compared to vehicle control
Method: Mice were anesthetized with 3% isoflurane in an induction chamber, and anesthesia was maintained by use of inhalation via nose cone. Sepsis was induced by cecal ligation and puncture (CLP) as previously described ([30], [31]). […] The animals received subcutaneous sterile isotonic saline (0.5 mL) for fluid resuscitation immediately after surgery. Sham-operated mice were subjected to identical procedures, except that ligation and puncture of the cecum was omitted. Survival of mice subjected to CLP or sham injury was determined daily for 6 days. Twenty-four and 48 hours after CLP, all animals were scored for clinical illness severity as previously described ([32]) by an examiner blinded to treatment arm. In this assessment, higher scores reflect increased illness severity with non-surviving mice receiving a score of 10. These mice were included in the statistical analysis. In additional experiments, mature Swiss-webster mice were treated with sham surgery or CLP procedure. At 4 hours after surgery, mice underwent blinded clinical illness severity assessment, measurement of body weight and temperature, peritoneal fluid and whole blood neutrophil counts, whole blood platelet counts, and plasma creatinine level determination.

[7] = nNIF 1 mg/kg IV at 4 and 10 hours after CLP

| Compound | peritoneal fluid bacterial CFUs at 24 hours [1] | peripheral blood bacterial CFUs at 24 hours [2] | plasma MPO-DNA complexes compared to other CLP treatment groups [3] | plasma MPO-DNA complexes compared to the sham surgery group ([3]; nNIF-SCR 1 mg/kg IV or meropenem 25 mg/kg IP at 4 and 10 hours after CLP) | nNIF plasma concentration-time course [4] | IL-10 level in peritoneal fluid (IL-10) | whole blood white blood cell and neutrophil counts (whole blood leukocytes) | neutrophil ability to generate reactive-oxygen species and phagocytize E. coli bioparticles (neutrophils) | peritoneal WBC and neutrophil counts [5] | whole blood bacterial CFUs at 96 hours ([2]; 96 hours after CLP, nNIF 1 mg/kg, elevated at 24 hours, meropenem comparator 8 mg/kg, N=3-4) | TNF-α level in peritoneal fluid (TNF-α) | IL-6 level in peritoneal fluid (IL-6) | illness severity score at 48 hours ([6]; nNIF 0.5 mg/kg IV at 4 and 10 hours after CLP) | illness severity score at 24 hours [6, 7] | illness severity score at 48 hours [6, 7] |
| --- | --- | --- | --- | --- | --- | --- | --- | --- | --- | --- | --- | --- | --- | --- | --- |
| C[C@@H](O)[C@H]1C(=O)N2C(C(=O)O)=C(S[C@@H]3CN[C@H](C(=O)N(C)C)C3)[C@H](C)[C@H]12 [meropenem, reference compound] | statistically significant decrease | statistically significant decrease | equivalent between the vehicle and meropenem arms | significantly increased MPO-DNA complexes |  |  |  |  |  |  |  |  |  |  |  |
| KFNKPFVFLMIEQNTKSPLFMGKVVNPTQ-OH [nNIF, neonatal NET-Inhibitory Factor] | higher CFUs | higher CFUs | significant reduction in MPO-DNA complexes |  | initial rapid decrease in nNIF plasma concentrations followed by a slower rate of decay | lack of an nNIF-associated alteration in IL-10 levels | without affecting white blood cell or neutrophil counts | still maintain their ability | without altering peritoneal WBC and neutrophil counts | returned to meropenem alone treatment levels | decreased TNF-α levels in peritoneal fluid | decreased compared to meropenem treated mice but not compared to the nNIF-SCR treatment group | improvement in the illness severity scores | improvement in the illness severity scores | improvement in the illness severity scores |
